# Results published in patent US20260176283A1, “IONIZABLE LIPIDS WITH LINEAR HEAD GROUPS” (Beam Therapeutics Inc., priority 2023, published 2026).
# Where “and” joins values, the source holds several entries; their conditions need not be identical. Equal values may be shown once.
# Assays:
# [1] = LNP characterization of base editor LNP preparations (DLS diameter, PDI, encapsulation efficiency); assay type: physicochemical
# Procedure: (§1) Lipid nanoparticle components are dissolved in 100% ethanol at specified lipid component molar ratios. mRNA encoding an adenine base editor and a chemically-modified sgRNA is dissolved at a mass ratio of 1:1 in 10 mM citrate, 100 mM NaCl, pH 4.0, resulting in a concentration of NA cargo of approximately 0.22 mg/mL. LNP preparations are formulated with molar ratios of either 50% Ionizable Lipid: 38.5% Cholesterol: 1.5% PEG2000-DMG: 10% DSPC or 47.5% Ionizable Lipid: 40% Cholesterol: 2.5% PEG2000-DMG: 10% DSPC both at a total lipid to NA molar ratio of 6.
# (§2) LNP preparations are formed by microfluidic mixing of the lipid and NA solutions using a Precision Nanosystems NanoAssemblr Ignite Instrument, according to the manufacturer's protocol. A 3:1 ratio of aqueous to organic solvent is maintained during mixing using differential flow rates. After mixing, LNP preparations are collected, diluted in PBS (approximately 2:1 v/v), and further buffer exchange is conducted using dialysis in PBS at 4° C. for 8 to 24 hours against a 20 kDa filter. After this initial dialysis, each individual LNP preparation is characterized via dynamic light scattering (DLS) to measure size and polydispersity. pKa of a subpopulation of LNP preparations is measured via TNS assay. After dialysis, LNP preparations are sterile filtered using 0.22 micron sterile filter and stored at 4° C. for further use. In some embodiments, LNP preparations may be concentrated using 100 kDa Amicon filters per manufacturer's protocol.
# DLS—LNP preparation hydrodynamic diameter and polydispersity index (PDI) is measured using high throughput dynamic light scattering (DLS) (DynaPro plate reader II, Wyatt). LNP preparations are diluted 1×PBS to an appropriate concentration and analyzed.
# Concentration of NA is determined by Qubit microRNA kit (for siRNA) or HS RNA kit (for mRNA) per manufacturer's instructions. Encapsulation efficiency is determined by measuring unlysed and lysed LNPs.
# PCSK9 target site = assay: In vivo base editing with ABE mRNA and sgRNA targeting PCSK9; parameters: species or system Balb/c mice; details: dose 0.03 MPK (mg total RNA/kg) IV, formulation ratio 47.5:40:2.5:10, liver, 4 days after dosing
# Procedure: as §1, §2
# (§3) Male Balb/C mice aged approximately 8-12 weeks are used in the experiments described herein. Each mouse is temporarily restrained, and LNP preparations are administered IV via tail vein injection. Age-matched mice are also used to administer vehicle (1×PBS) via tail vein injection as a control. Four to six days post-dose, tissues including liver, spleen, heart and muscle are collected (only liver and muscle (quardracept) are reported). Genomic DNA is isolated and fragmented and adapter-ligated using the Nextera DNA Flex Library Prep Kit (Illumina) using the 96-well plate Nextera indexing primers (Illumina), according to the manufacturer's instructions. Library size and concentration is confirmed by Fragment Analyzer (Agilent) and sent to Novogene for whole genome sequencing using an Illumina HiSeq.
# For base editing, mRNA encoding an adenine base editor (ABE) and a guide RNA (sgRNA) targeting PCSK9 at 1:1 (mass ratio) are coencapsulated in LNP preparations as described herein. LNP preparations are administrated into Balb/c mice through tail vein injections at concentration of 0.03 mg total RNA/kg. […] Base editing is determined by performing targeted deep sequencing analysis at the PCSK9 target site using extracted genomic DNA.
# [2] = LNP preparation characterization (encapsulation efficiency, DLS size and polydispersity), barcoded screen LNPs; assay type: physicochemical; details: LNP 47.5% ionizable lipid: 40% cholesterol: 2.5% PEG-2000 DMG: 10% DPSC, N/P 4.5-6; for AVG PDI / AVG Z Dia (nm): DLS
# Procedure: Lipid nanoparticle components were dissolved in 100% ethanol at specified lipid component molar ratios. Nucleic acid (NA) cargo was dissolved in 10 mM citrate, 100 mM NaCl, pH 4.0, resulting in a concentration of NA cargo of approximately 0.22 mg/mL. In some embodiments, NA cargos included both a functional NA and a reporter barcode mixed at mass ratios of 1:10 to 10:1 functional NA to barcode. As described herein, a NA can be a siRNA, an anti-sense, an expressing DNA, or mRNA.
# LNP preparations were prepared with 47.5% Ionizable Lipid (e.g., a compound provided herein): 40% cholesterol: 2.5% PEG-2000 DMG: 10% DPSC and an N/P ratio range of 4.5-6. LNP preparations were formed by microfluidic mixing of the lipid and NA solutions using Precision Nanosystems NanoAssemblr Spark or Benchtop series Instruments, according to the manufacturer's protocol.
# A ratio of aqueous to organic solvent of approximately 2:1 or 3:1 was maintained during mixing using differential flow rates. After mixing, LNP preparations were collected, diluted in phosphate buffer saline (PBS) or Tris-buffered saline (TBS) (approximately 1:1 v/v). Further buffer exchange was conducted using dialysis in PBS or TBS at 4° C. for 4 to 24 hours against a 20 kDa filter. After this initial dialysis, each individual LNP preparation may be characterized via dynamic light scattering (DLS) to measure the size (e.g., diameter) and polydispersity. LNP preparations falling within specific diameter and polydispersity ranges were pooled, and further dialyzed against PBS or TBS at 4° C. for 1 to 4 hours against a 100 kDa dialysis cassette. After the second dialysis, LNP preparations were sterile filtered using 0.22 μm filter and stored at 4° C. for further use.
# ALAS1 target site = assay: In vivo base editing with ABE mRNA and sgRNA targeting ALAS1; parameters: species or system Balb/c mice; details: for Liver Editing A->G (%): 4 days after dosing
# Procedure: as §1, §2, §3
# For base editing, mRNA encoding an adenine base editor (ABE) and a guide RNA (sgRNA) targeting ALAS1 at 1:1 (mass ratio) are coencapsulated in LNP preparations as described herein. LNP preparations are administrated into Balb/c mice through tail vein injections at concentrations ranging from 0.05 to 3.0 mg/kg total RNA. At 4 days after dosing, mice are euthanized and liver, spleen and bone barrow are harvested. Base editing is determined by performing targeted deep sequencing analysis at the ALAS1 target site using extracted genomic DNA.
# [3] = Table E LNPs, formulation ratio 47.5:40:2.5:10, ABE mRNA/PCSK9 sgRNA
# [4] = Table C LNPs, formulation ratio 47.5:40:2.5:10, ABE mRNA/ALAS1 sgRNA
# [5] = Table D LNPs, formulation ratio 50:38.5:1.5:10, ABE mRNA/ALAS1 sgRNA
# [6] = dose 3 MPK IV, formulation ratio 50:38.5:1.5:10, quadricep muscle
SMILES,"Diameter (nm) [1, 3] [nm]","EE (%) [1, 3] [%]",AVG EE(%) [2] [%],AVG PDI [2],AVG Z Dia (nm) [2] [nm],"Diameter (nm) [1, 5] [nm]","EE (%) [1, 5] [%]","PDI (%) [1, 5] [%]",Liver Editing A->G (%) (PCSK9 target site),Quadrecept Editing A->G (%) (ALAS1 target site; [6]),further results
"CC/C=C\CCCC(CCC/C=C\CC)OC(=O)CCCCCC(=O)OCC(COC(=O)CCCCCC(=O)OC(CCC/C=C\CC)CCC/C=C\CC)COC(=O)OCCCN(CC)CC [Compound (29), O1-[2-[3-(diethylamino)propoxycarbonyloxymethyl]-3-[7-[(Z)-1-[(Z)-hept-4-enyl]oct-5-enoxy]-7-oxo-heptanoyl]oxy-propyl] O7-[(Z)-1-[(Z)-hept-4-enyl]oct-5-enyl] heptanedioate]",65.7,96.55,–,–,–,–,–,–,7.53,–,"PDI (%) [1, 3]: 11.9%"
"CC/C=C\CCCC(CCC/C=C\CC)OC(=O)CCCCCC(=O)OCC(COC(=O)CCCCCC(=O)OC(CCC/C=C\CC)CCC/C=C\CC)COC(=O)OCCCN1CCCC1 [Compound (30), 1-[3-({7-Oxo-7-[(3Z,12Z)-pentadeca-3,12-dien-8-yloxy]heptanoyl}oxy)-2-[({[3-(pyrrolidin-1-yl)propoxy]carbonyl}oxy)methyl]propyl] 7-(3Z,12Z)-pentadeca-3,12-dien-8-yl heptanedioate]",67.06,97.15,–,–,–,–,–,–,1.53,–,–
"CC/C=C\CCCC(CCC/C=C\CC)OC(=O)CCCCCC(=O)OCC(COC(=O)CCCCCC(=O)OC(CCC/C=C\CC)CCC/C=C\CC)COC(=O)NCCCn1ccnc1 [Compound (32), 1-{2-[({[3-(1H-imidazol-1-yl)propyl]carbamoyl}oxy)methyl]-3-({7-oxo-7-[(3Z,12Z)-pentadeca-3,12-dien-8-yloxy]heptanoyl}oxy)propyl} 7-(3Z,12Z)-pentadeca-3,12-dien-8-yl heptanedioate]",81.94,87.5,–,–,–,–,–,–,0.06,–,–
"CC/C=C\CCCC(CCC/C=C\CC)OC(=O)CCCCCC(=O)OCC(COC(=O)CCCCCC(=O)OC(CCC/C=C\CC)CCC/C=C\CC)COC(=O)NCCN1CCN(C)CC1 [Compound (31), 01-[2-[[7-[(Z)-1-[(Z)-hept-4-enyl]oct-5-enoxy]-7-oxo-heptanoyl]oxymethyl]-3-[2-(4-methylpiperazin-1-yl)ethylcarbamoyloxy]propyl] O7-[(Z)-1-[(Z)-hept-4-enyl]oct-5-enyl] heptanedioate]",103.5,93.42,–,–,–,–,–,–,0.02,–,–
"CC/C=C\CCCC(CCC/C=C\CC)OC(=O)CCCCC(=O)OCC(COC(=O)CCCCC(=O)OC(CCC/C=C\CC)CCC/C=C\CC)COC(=O)CCCN1CCCC1 [Compound (12), 1-{2-[({6-Oxo-6-[(3Z,12Z)-pentadeca-3,12-dien-8-yloxy]hexanoyl}oxy)methyl]-3-{[4-(pyrrolidin-1-yl)butanoyl]oxy}propyl}6-(3Z,12Z)-pentadeca-3,12-dien-8-yl hexanedioate]",–,–,63.6,0.12,105.44,82.7,72.57,17.4,–,0.22,–

# Continued, in another order:
"Diameter (nm) [1, 3] [nm]","EE (%) [1, 3] [%]",AVG EE(%) [2] [%],AVG PDI [2],AVG Z Dia (nm) [2] [nm],"Diameter (nm) [1, 5] [nm]","EE (%) [1, 5] [%]","PDI (%) [1, 5] [%]",SMILES,Liver Editing A->G (%) (PCSK9 target site),Quadrecept Editing A->G (%) (ALAS1 target site; [6]),further results
–,–,93.4,0.08,82.14,79.5,98.3,22.3,"C=CCCCCCC(CCCCCC=C)OC(=O)CCCCCC(=O)OCC(COC(=O)CCCCCC(=O)OC(CCCCCC=C)CCCCCC=C)COC(=O)NCCN1CCCC1 [Compound (26), O1-[2-[[7-(1-hept-6-enyloct-7-enoxy)-7-oxo-heptanoyl]oxymethyl]-3-(2-pyrrolidin-1-ylethylcarbamoyloxy)propyl] O7-(1-hept-6-enyloct-7-enyl) heptanedioate]",–,–,"Diameter (nm) [1, 4]: 75.47 nm and 81.14 nm; EE (%) [1, 4]: 99.1% and 99%; PDI (%) [1, 4]: 1.2% and 9.4%; Liver Editing A->G (%) (ALAS1 target site; dose 0.05 MPK IV, formulation ratio 50:38.5:1.5:10, liver): 0.41%; Quadrecept Editing A->G (%) (ALAS1 target site; dose 3 MPK IV, formulation ratio 47.5:40:2.5:10, quadricep muscle): 7.26%"
–,–,83.5,0.06,108.73,98.8,98.59,9.5,C=CCCCCC(CCCCC=C)OC(=O)CCCCCC(=O)OCC(COC(=O)CCCCCC(=O)OC(CCCCC=C)CCCCC=C)COC(=O)CCCN1CCCC1 [Compound (2)],–,–,"Liver Editing A->G (%) (ALAS1 target site; dose 1.5 MPK IV, formulation ratio 50:38.5:1.5:10, liver): 79.48%; Quadrecept Editing A->G (%) (ALAS1 target site; dose 1.5 MPK IV, formulation ratio 50:38.5:1.5:10, quadricep muscle): 3.19%"
–,–,74.3,–,85.54,121.2,91.02,11.8,"C=CCCCC(CCCC=C)OC(=O)CCCCCCC(=O)OCC(COC(=O)CCCCCCC(=O)OC(CCCC=C)CCCC=C)COC(=O)CCCN1CCCC1 [Compound (7), 1-[2-({[8-Oxo-8-(undeca-1,10-dien-6-yloxy)octanoyl]oxy}methyl)-3-{[4-(pyrrolidin-1-yl)butanoyl]oxy}propyl] 8-undeca-1,10-dien-6-yl octanedioate]",–,0.87,–
–,–,98.2,0.07,138.63,149.3,88.58,13.1,"C=CCCCC(CCCC=C)COC(=O)CCCCCC(=O)OCC(COC(=O)CCCCCC(=O)OCC(CCCC=C)CCCC=C)COC(=O)CCCN1CCCC1 [Compound (18), 1-(2-{[(7-Oxo-7-{[2-(pent-4-en-1-yl)hept-6-en-1-yl]oxy}heptanoyl)oxy]methyl}-3-{[4-(pyrrolidin-1-yl)butanoyl]oxy}propyl) 7-[2-(pent-4-en-1-yl)hept-6-en-1-yl] heptanedioate]",–,2.5,"Diameter (nm) [1, 4]: 106 nm; EE (%) [1, 4]: 93.9%; PDI (%) [1, 4]: 16.9%; Liver Editing A->G (%) (ALAS1 target site; dose 0.1 MPK IV, formulation ratio 47.5:40:2.5:10, liver): 0.99%; Quadrecept Editing A->G (%) (ALAS1 target site; dose 0.1 MPK IV, formulation ratio 47.5:40:2.5:10, quadricep muscle): 0.29%"
